Several values for one entry are separate records, joined by “and”; a condition that tells them apart may be missing. Equal entries are not always repeated.
Legend:
apoE4 = target: T1, apoE4 (Homo sapiens, UniProt P02649, C130R); test: Emulsion binding assay for domain interaction, apoE4; conditions: for E4 + cpd n = 3, % bound / E4 + cpd n = 3, % free / E4 control, % bound / E4 control, % free: follow-up assay; for E4 control, % bound / E4 control, % free: second E4 control; for E4 + cpd, % bound / E4 + cpd, % free: initial assay, 2.5 μl of compound (10 mM stock) in 250 μl, 37° C. 2 hours
T1 construct: made in house
T1 sequence (P02649 19-317 C130R): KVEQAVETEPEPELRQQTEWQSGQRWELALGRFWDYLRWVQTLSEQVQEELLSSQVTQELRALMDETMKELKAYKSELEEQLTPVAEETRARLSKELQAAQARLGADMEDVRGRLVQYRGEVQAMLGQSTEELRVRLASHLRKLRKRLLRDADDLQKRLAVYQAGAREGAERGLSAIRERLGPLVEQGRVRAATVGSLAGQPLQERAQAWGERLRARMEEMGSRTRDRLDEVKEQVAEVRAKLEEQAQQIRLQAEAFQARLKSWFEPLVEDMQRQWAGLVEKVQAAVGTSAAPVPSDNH
Protocol: (§1) Preparation of emulsion particles. Triolein (160 mg) and L-alpha-Phosphatidylcholine (40 mg) are combined and dried under nitrogen. After the addition of 8 mls of buffer (10 mM Tris, 100 mM KCl, 1 mM EDTA, pH 8.0), the mixture is sonicated in a water bath to obtain a heterogeneous mix of emulsion particles. The particles are harvested by ultracentrifugation (TLA 100.2 rotor, 30,000 rpm for 30 minutes) and the subsequent lipid cake is removed by tube slicing and resuspended in 100 μt 20 mM Phosphate Buffer (PB). Triolein and phospholipid content are measured and total emulsion particle concentration is determined.
(§2) Radiolabelling Freshly denatured and renatured Apolipoprotein E3 and E4 are radiolabelled using Bolton-Hunter Reagent [^125I] (ICN). Specific Activity is determined using Lowry method and Gamma 8000 counter.
(§3) Binding Affinity Assay. […] In glass tubes, 25 μg of protein (with iodinated tracer) was reduced with 1% β-mercaptoethanol. Two hundred and fifty μg of emulsion particles and 2.5 μl of compound (10 mM stock) were added and the final mixture was brought up to 250 μl with 20 mM phosphate buffer (PB). The reaction mixture was then incubated in a 37° C. water bath for 2 hours before being transferred to 1.5 ml ultracentrifuge tubes. Finally, 50 μl of 60% sucrose was mixed with the sample and 400 μl 20 mM PB was carefully layered on top. Using a TLA 100.2 rotor, the tube was spun at 30,000 rpm for 30 minutes and subsequently cut to separate the floating emulsion particle layer from the free protein at the bottom of the tube. These fractions were then combined with the respective half of the actual tube and counted using a Gamma-8000. […] Protein-only assays yielded 94.5-96.6% of protein accumulated in the bottom portion of the tube. In emulsion particle-only assays, 94% of emulsion particles accumulated in the top portion of the tube.
(§4) Preparation of Emulsion Particles and VLDL Binding Affinity Assay. VLDL-like emulsion particles were prepared using triolein (160 mg) and L-alpha-phosphatidylcholine (40 mg), as described. Dong and Weisgraber (1996) supra; and Dong et al. (1994) J. Biol. Chem. 269:22358-22365.

apoE3 [1] = target: T2, apoE3 (Homo sapiens, UniProt P02649); test: Emulsion binding assay, apoE3; conditions: follow-up assay
T2 construct: made in house
T2 sequence (P02649 19-317): as the sequence (P02649 19-317 C130R) above, with R112C counted along it
Protocol: as §1, §2, §3, §4

[2] = test system: apoE4 enhancement of Aβ production; test: Aβ production assay, B103-APP cells incubated with apoE4; type: cell-based, rat; conditions: FIG. 22
Protocol: (§5) Aβ production assay. Stable neuroblastoma B103 cell lines transfected with a wildtype hAPP cDNA construct (B 103-APP) were selected by growing them in Dulbecco's modified Eagle's medium (DMEM) containing 10% fetal calf serum (FBS) and 400 μg/ml G418. A cell line expressing APP at similar levels in mouse brains has been identified by RNase protection assay (RPA) and was used in the studies described below. To determine Aβ production, B103-APP cells were incubated with serum-free minimal essential medium (MEM) containing N2 supplements with or without apoE isoforms for 24 h at 37° C. After incubation, 50 μl of medium was collected and assayed for Aβ levels with an ELISA method. The cells were lysed, and cellular proteins were determined by the Lowry method. AP production was normalized to cellular protein.
(§6) Cell Culture. Rat neuroblastoma B103 cells stably expressing human wildtype APP (hAPP695wt) (Xu et al. ((1999) Proc. Natl. Acad. Sci. USA 96:7547-7552; Esposito, et al. (2004) J. Neurochem. 91:1260-1274) were generated in Dr. Lennart Mucke's laboratory at the Gladstone Institute of Neurological Disease and maintained in Dulbecco's modified Eagle's medium (DMEM) (GIBCO, Grand Island, N.Y.) containing 400 μg/ml G418, 10% fetal bovine serum, and 5% horse serum at 37° C. Twenty-four hours after plating into 48-well plates (1×10^5 cells per well), cells were washed twice with serum-free DMEM and cultured for another 24 h in DMEM containing 1% N-2 supplement (GIBCO) to induce differentiation. The cells were treated with either β-VLDL (25 μg/ml cholesterol), recombinant human apoE isoform-enriched β-VLDL (7.5 μg/ml apoE and 25 μg/ml cholesterol), or recombinant human apoE (7.5 μg/ml apoE) in fresh DMEM containing 1% N-2 supplement for an additional 24 h. In some experiments, RAP (25 nM or 1 μM) was added to the cells 1 h before apoE treatment.
(§7) Aβ Assay. Aβ secreted into the medium was detected with a sandwich enzyme-linked immunosorbent assay (ELISA), using mAb 266 as a capturing antibody and 3D6 as a detecting antibody, as described. Johnson-Wood et al. ((1997) Proc. Natl. Acad. Sci. USA 94:1550-1555). Aβ was quantified from a standard curve (Aβ42; Bachem, Torrance, Calif.) and normalized by total cellular protein.

apoE3 [3] = test: Aβ production assay, B103-APP cells incubated with apoE3; type: cell-based, rat; conditions: FIG. 22
Protocol: as §5, §6, §7

B103-APP cells = test: APP processing and Aβ production, B103-APP cells; type: cell-based, rat
Protocol: as §5, §6
In some experiments, cells were treated with lovastatin, as described but with a minor modification. Fassbender et al. (2001) Proc. Natl. Acad. Sci. USA 98:5856-5861. Briefly, cells were maintained in differentiation medium containing 4 μM lovastatin and 0.25 mM mevalonate for 24 h. After treatment for 5 min with 5 mM methyl-β-cyclodextrin, which depletes cell membrane cholesterol (Bodovitz and Klein (1996) J. Biol. Chem. 271:4436-4440; Kojro et al. (2001) Proc. Natl. Acad. Sci. USA 98:5815-5820), the cells were incubated in fresh differentiation medium containing lovastatin and mevalonate for 24 h. The conditioned medium was collected, and cellular cholesterol extracted with chloroform/methanol (Huang et al. (1994) Proc. Natl. Acad. Sci. USA 91:1834-1838) and quantitated with a kit from Abbott Laboratories (Abbott Park, Ill.).
Detection of sAPPα. Media conditioned for 24 hours were normalized by protein content and subjected to SDS/PAGE. Proteins were then transferred onto nitrocellulose membranes. The sAPPα was detected by mAb 6E10 and visualized with an enhanced chemiluminescence system (Pierce, Rockford, Ill.).
as §7

Neuro-2a cells [4] = test: Aβ-induced lysosomal leakage (cytosolic β-hexosaminidase); type: cell-based, mouse; conditions: 20 μM Aβ1-42
Protocol: The cytosolic fraction was obtained by ultracentrifugation, and the cytosolic β-hexosaminidase activity was measured.
Quantitation of the lysosomal enzyme β-hexosaminidase activity in the cytosol indicates lysosomal leakage. […] After incubation the cells were washed and cytosolic fractions were isolated as described in Materials and Methods. The enzymatic activity of β-hexosaminidase was assayed in 20 μg of cytosolic protein for each sample.
Lysosomal leakage was quantitated by assaying cytosolic 0-hexosaminidase activity. […] Conditioned media were prepared as described above. Apoptosis was quantitated by measuring DNA fragmentation.

Neuro-2a cells [5] = test: Aβ-induced apoptosis (DNA fragmentation assay); type: cell-based, mouse
Protocol: DNA Fragmentation Assay—DNA fragmentation of apoptotic cells was determined with Cell Death Detection ELISA kits (Roche, Indianapolis, Ind.).
FIG. 38. […] Control cells were not treated with Aβ1-42. Apoptotic cell death was measured with a DNA fragmentation assay. Values are the mean±S.D. of three separate experiments.
FIGS. 39A and 39B. […] Lysosomal leakage was quantitated by assaying cytosolic 0-hexosaminidase activity. […] Conditioned media were prepared as described above. Apoptosis was quantitated by measuring DNA fragmentation.

[6] = β-VLDL 25 μg/ml cholesterol or lovastatin 4 μM

| Compound | E4 + cpd n = 3, % bound (apoE4) [%] | E4 + cpd n = 3, % free (apoE4) [%] | E4 control, % bound (apoE4) [%] | E4 control, % free (apoE4) [%] | E4 + cpd, % bound (apoE4) | E4 + cpd, % free (apoE4) | E3 + compound, % bound (apoE3 [1]) [%] | E3 + compound, % free (apoE3 [1]) [%] | other results |
| --- | --- | --- | --- | --- | --- | --- | --- | --- | --- |
| 5-chloro-2-(4-chloro-2-(3,4-dichloro phenylureido) [GIND32] | 57 | 43 | 49 | 51 | 22% and 19% | 78% and 81% | 14 | 86 | apoE4 enhancement of Aβ production [2]: abolished completely; effect on apoE3 (Aβ production) (apoE3 [3]): no effect |
| O.O=C([O-])c1ccccc1-c1c2cc(I)c(=O)c(I)c-2oc2c(I)c([O-])c(I)cc12.[Na+].[Na+] [Erythrosin B] | 57 | 43 | 26 | 74 | 11% and 10% | 89% and 90% | 20 | 80 |  |
| O=C(N[C@H](Cc1ccc(OCc2ccccc2)cc1)C(=O)O)OCc1ccccc1 [Z-D-Tyr (BZL)-OH] | 57 | 43 | 43 | 57 | 25% and 23% | 75% and 77% | 26 | 74 |  |
| CC[C@H](C)C(=O)O[C@H]1C[C@@H](C)C=C2C=C[C@H](C)[C@H](CC[C@@H]3C[C@@H](O)CC(=O)O3)[C@H]21 [lovastatin, reference compound] |  |  |  |  |  |  |  |  | cellular cholesterol content (B103-APP cells; [6]): lowered; production of Aβ (B103-APP cells; [6]): decreased; secretion of sAPPα (B103-APP cells; [6]): increased |
| Aβ1-42: Amyloid β1-42, aggregated before use |  |  |  |  |  |  |  |  | increase of cytosolic β-hexosaminidase activity (Neuro-2a cells [4]; apoE4-transfected cells): ~85%; increase of cytosolic β-hexosaminidase activity (Neuro-2a cells [4]; neo-transfected cells): ~40%; DNA fragmentation (Neuro-2a cells [5]; apoE3-transfected cells, 20 μM Aβ1-42, 18 h): 110 % of that in Z-VAD-treated con; DNA fragmentation (Neuro-2a cells [5]; apoE4-transfected cells, 20 μM Aβ1-42, 18 h): ~250 % of that in Z-VAD-treated con; Aβ-induced DNA fragmentation (Neuro-2a cells [5]; neo-transfected cells in apoE3-conditioned medium, 20 μM Aβ1-42, 18 h): 202%; Aβ-induced DNA fragmentation (Neuro-2a cells [5]; neo-transfected cells in apoE4-conditioned medium, 20 μM Aβ1-42, 18 h): 314%; Aβ-induced DNA fragmentation (Neuro-2a cells [5]; neo-transfected cells in neo-conditioned medium, 20 μM Aβ1-42, 18 h): 232%; DNA fragmentation (Neuro-2a cells [5]; neo-transfected cells, 20 μM Aβ1-42, 18 h): ~140 % of that in Z-VAD-treated con |
| Z-VAD |  |  |  |  |  |  |  |  | DNA fragmentation, Z-VAD treatment alone (Neuro-2a cells [5]; compared with untreated control cells): no effect; Aβ-induced DNA fragmentation (Neuro-2a cells [5]; pretreatment with Z-VAD 100 μg/ml 2 h, all three cell lines): greatly reduced |
| apoE4-Thr-61: Thr-61 mutant of apoE4, lacks intramolecular domain interaction |  |  |  |  |  |  |  |  | enhanced Aβ production (B103-APP cells; 7.5 μg/ml, 37° C., 24 h, compared with apoE3 or apoE4): abolished the enhanced Aβ production |
| glycine cresol red [GIND29] | 57 | 43 | 48 | 52 | 23% and 29% | 77% and 71% | 33 | 67 | apoE4 enhancement of Aβ production [2]: abolished completely; effect on apoE3 (Aβ production) (apoE3 [3]): no effect |

Source: patent publication US7964598B2 (The J. David Gladstone Institutes, priority 1995, dated 2011)
